According to patent US7291638B2, “3-amido-1,2-benzoisoxazole derivatives, process for preparation, and use thereof” (Dongwha Pharm. Ind. Co., Ltd., priority 2001, dated 2007):
Where two headings read alike, the source gives them in different places. Each block holds one compound with its values, some of them ahead of it.

Legend:
osteoclast cell = experiment: Change in the number of osteoclast cell in osteoporotic rats induced by ovariectomy; format: in vivo, rat; details: for osteoclast cells inducing the osteolysis (in words): osteoporotic rats induced by ovariectomy, group administered the drug; for number of osteoclast cell, Tibia Left / number of osteoclast cell, Tibia Right / number of osteoclast cell, femur Left / number of osteoclast cell, femur Right: ovariectomized rats, cells within 1 mm^2 area, 10 sections, mean±SD, PEG 100 solution, intramuscular injection, 40 days; for number of osteoclast cell, femur Right: same concentration as formula 2 (100 mg per kg)
Procedure: (§1) To investigate therapeutic value of the osteoporosis to ovariectomized rats, change in the number of osteoclast cell and area ratio of trabecular bone (volume %) were measured.
(§2) After 25 female white rats purchased from Chales River (Japan) were adjusted to a new environment, temperature of 20˜25° C. and relative humidity of 30˜35%. The 5 rats were positioned in a hutch, feed (Sam Yang corporation) and water were supplied to the rats. 20 rats had the operation for the removal of an ovary, 5 rats had the Sham operation for opening and suturing the abdominal cavity, used as Sham control group.
(§3) Also, to compare drug efficacies of EXAMPLE and the compound of formula 2, 5 rats removed of the ovary were used as experimental group. The compound of formula 2 was dissolved in injectable distilled water and administered to the rats orally in an amount of 100 mg per kg for 40 days from 10 weeks after ovariectomy or Sham-operation, using oral sonde. 5 ml/kg was administered to the rats. […] 5 ml/kg was administered to the rats.
(§4) After administration terminated, the femur and tibia were removed from the animals, and fixed in 10% neutral formalin. The fixed tissue was decalcified in a solution (solution mixed 24.4% formic acid and 0.5 N sodium hydroxide) for 5 days, embedded in paraffin and 3˜4 μm sections were prepared. After that prepared section were dyed by hematoxylin-eosin.
Change in the number of osteoclast cell was calculated by mean±standard deviation through the number of the osteoclast cell existed within 1 mm^2 area at the 10 sections. The experiment group administered was compared with the control group not and Sham group.

[1] = test system: osteoporotic rat induced by ovariectomy; experiment: Area ratio of trabecular bone in osteoporotic rats induced by ovariectomy; format: in vivo; details: for area ratio of trabecular bone, Femur Left / area ratio of trabecular bone, Tibia Left / area ratio of trabecular bone, Tibia Right / area ratio of trabecular bone, Femur Right: ovariectomized rats, 40 days
Procedure: as §1, §2, §3, §4
Also, the area ratio of trabecular bone was calculated at the section of the femur and tibia respectively, through the equation.

[2] = Pharmacokinetics test in rats (oral; plasma concentration of the compound of formula 2 by HPLC); format: in vivo, rat
Procedure: Male white rats (Sprague-Dawley) having body weights of 230˜260 g were used, 3˜4 rats were tested for a drug. Rats were fasted for 18˜20 hours before the drug was administered. The weight of rat was measured on the day of the experiment, the drug was administered orally to the rats according to dosage. After administration, rats were lightly anesthetized with diethyl ether. At […], 0.17, 0.5, 1.0, 1.5, 3.0, 5.0, 8.0 hours, the blood was collected from orbit vein of the rats by canulation. The collected blood was centrifuged, and the plasma was isolated. To determine concentration of the drug in plasma, HPLC was carried out as follows. Acetonitrile containing internal standard substance and the isolated plasma was mixed in the same amount, followed by centrifuging at 12,000 rpm. The supernatent was applied to HPLC, bioavailability of the compounds prepared in EXAMPLES was measured by analyzing a plasma concentration of the compound of formula 2.
Pharmacokinetics parameters were measured by noncompartmental analysis, using WinNolin (ver. 1.0 Scientific Consulting Inc., USA). Time and maximum plasma concentration were registered by observed data, half life was calculated by linear regression analysis of terminal elimination phase.

[3] = osteoporotic rats induced by ovariectomy
[4] = PEG 100 solution, intramuscular injection
[5] = male Sprague-Dawley rats, 50 mg/kg, vehicle DW (distilled water)
[6] = male Sprague-Dawley rats, 50 mg/kg, vehicle DW (distilled water), analyte compound of formula 2 in plasma
[7] = injectable distilled water, oral, 100 mg per kg
[8] = male Sprague-Dawley rats, 100 mg/kg, vehicle DW (distilled water)

Compound: COc1cc(C(=O)N(C(C)C)C(C)C)ccc1OCCCCOc1ccc2onc(NC(=O)[C@H](C)N)c2c1.CS(=O)(=O)O [Example 2, (1S)-1-{5-[4-(4-diisopropylcarbamoyl-2-methoxy-phenoxy)-butoxy]-benzo[d]isoxazole-3-ylcarbamoyl)-ethyl-ammonium methane sulfonic acid salt]
osteoclast cells inducing the osteolysis (in words) (osteoclast cell): significantly decreased
number of osteoclast cell, Tibia Left (osteoclast cell): 4.50 ± 1.60*.^#
number of osteoclast cell, Tibia Right (osteoclast cell): 5.63 ± 1.30*.^#
number of osteoclast cell, femur Left (osteoclast cell): 4.50 ± 1.69*.^#
number of osteoclast cell, femur Right (osteoclast cell): 5.00 ± 1.51*.^##
area ratio of trabecular bone compared to the control group (in words) [1, 3]: excellently increased
therapeutic value (area ratio of the trabecular bone) compared with the compound of formula 2 (in words) [1, 3]: more distinguished therapeutic value than the compound of formula 2
area ratio of trabecular bone, Femur Left [1, 4]: 41.95 ± 8.78 volume %
area ratio of trabecular bone, Tibia Left [1, 4]: 40.12 ± 7.20**.^# volume %
area ratio of trabecular bone, Tibia Right [1, 4]: 35.58 ± 9.55*.^## volume %
area ratio of trabecular bone, Femur Right ([1]; PEG 100 solution, intramuscular injection, same concentration as formula 2 (100 mg per kg)): 33.93 ± 3.71*.^## volume %

Compound: COc1cc(C(=O)N(C(C)C)C(C)C)ccc1OCCCCOc1ccc2onc(NC(=O)[C@@H](N)C(C)C)c2c1.CS(=O)(=O)O [Example 4, (1S)-1-{5-[4-(4-diisopropylcarbamoyl-2-methoxy-phenoxy)-butoxy]-benzo[d-]isoxazole-3-ylcarbamoyl)-2-methyl-propyl-ammonium methane sulfonic acid salt]
T1/2 [2, 5]: 66.6 min
Tmax [2, 5]: 30 min
Total AUC [2, 5]: 2450 ng·h/mL
Cmax [2, 6]: 980 ng/mL

Total AUC ([2]; male Sprague-Dawley rats, 50 mg/kg, vehicle DMSO): 190 ng·h/mL
Cmax ([2]; male, Sprague-Dawley, rat, plasma, po, 50 mg/kg, male Sprague-Dawley rats, 50 mg/kg, vehicle DMSO, read-out: Cmax): 470 ng/mL
Tmax ([2]; male, Sprague-Dawley, rat, plasma, po, 50 mg/kg, male Sprague-Dawley rats, 50 mg/kg, vehicle DMSO, read-out: Tmax): 10.2 min
Cmax ([2]; male, Sprague-Dawley, rat, plasma, po, 50 mg/kg, male Sprague-Dawley rats, 50 mg/kg, vehicle DW + T (distilled water + tween 80), read-out: Cmax): 80 ng/mL
Tmax ([2]; male, Sprague-Dawley, rat, plasma, po, 50 mg/kg, male Sprague-Dawley rats, 50 mg/kg, vehicle DW + T (distilled water + tween 80), read-out: Tmax): 90 min
drug absorption (in words) ([2]; rat, 50 mg per kg, dissolved in distilled water and tween 80): no drug was absorbed
half-life ([2]; rat, plasma, male Sprague-Dawley rats, 50 mg/kg, vehicle DMSO): 19.2 min
Compound: COc1cc(C(=O)N(C(C)C)C(C)C)ccc1OCCCCOc1ccc2c(N)noc2c1 [Formula 2, reference compound]
area ratio of trabecular bone, Femur Left [1, 7]: 31.38 ± 7.88*.^## volume %
area ratio of trabecular bone, Femur Right [1, 7]: 31.69 ± 9.83 volume %
area ratio of trabecular bone, Tibia Left [1, 7]: 28.22 ± 5.54 volume %
area ratio of trabecular bone, Tibia Right [1, 7]: 29.35 ± 11.37 volume %

Compound: {5-[4-(4-diisopropylcarbamoyl-2-methoxy-phenoxy)-butoxy]-benzo[d]isoxazole-3-ylcarbamoyl}-methyl-ammonium methane sulfonic acid salt [Example 1]
osteoclast cells inducing the osteolysis (in words) (osteoclast cell): significantly decreased
number of osteoclast cell, Tibia Left (osteoclast cell): 5.40 ± 2.76*.^##
number of osteoclast cell, Tibia Right (osteoclast cell): 5.30 ± 2.00*.^#
number of osteoclast cell, femur Left (osteoclast cell): 5.10 ± 2.38*.^#
number of osteoclast cell, femur Right (osteoclast cell): 4.90 ± 1.52*.^#
Tmax [2, 5]: 30 min
Total AUC [2, 5]: 5720 ng·h/mL
Cmax [2, 6]: 1530 ng/mL
Cmax [2, 8]: 1510 ng/mL
Tmax [2, 8]: 30 min
Total AUC [2, 8]: 11080 ng·h/mL
